Assay results from patent US6929949B1, “Corona ion generating method and apparatus for the manipulation of molecules and biological cells” (University of South Florida, priority 2002, dated 2005).

Tested on: human A204 sarcoma cells
Experiment: Corona charge facilitated uptake of calcein by cells in culture (fluorescence microscopy)
Type: cell-based
Conditions: for % FLOURESCENT (percentage of fluorescing cells): 10 μM calcein in PBS, visually estimated
Method: Referring initially to FIG. 2, the present invention has been used experimentally to facilitate the uptake of calcein by cells in culture. The experimental apparatus is shown as in FIG. 2. 35 mm diameter cell culture plates 4 were seeded with 0.5×10^6 human A204 sarcoma cells 5 approximately 24 hours prior to the experiment to allow time for the cells to attach to the growth surface on the bottom of each dish. Immediately prior to treating the cells with corona charge in air, the growth media was aspirated. Then 500 ÂμI of 10 ÂμM Calcein 6, in phosphate buffered saline 7; was introduced onto the bottom of the plate. Calcein molecules in the phosphate buffered saline are shown in the figure as a negatively charged species. The liquid was distributed over the entire growth surface. […] Corona charge 10 was deposited onto the samples in the presence of calcein for a range of times from 0 minutes to 10 minutes. The solution of calcein was allowed to remain in contact with each sample for a period of 10 minutes after corona exposure. Additionally, a positive or negative bias potential 11 can be applied to the sample. Each plate was then washed with two separate 1 ml aliquots of phosphate buffered saline to remove extracellular calcein. Finally, a 1 ml aliquot of phosphate buffered saline was pipetted into each sample plate. Samples were viewed with florescent microscopy to visually confirm the entry of the nonpermanent calcein resulting from corona charge exposure. The percentage of fluorescing cells was visually estimated based upon the total number of cells in the plates. The table shown below indicates the resulting percentages of fluorescing cells in each sample.

For O=C(O)CN(CC(=O)O)Cc1cc2c(cc1O)Oc1cc(O)c(CN(CC(=O)O)CC(=O)O)cc1C21OC(=O)c2ccccc21 [calcein, Calcein], which “entry of calcein into the cells” value (absence of corona exposure (sample 6)) is on record?
Its value is “did not result in the entry of calcein into the cells”.

And the “% FLOURESCENT (percentage of fluorescing cells)” value (corona exposure time 0 minutes (no corona exposure))?
Its value is 0%.

What about the “% FLOURESCENT (percentage of fluorescing cells)” value (corona exposure time 2 minutes, positive corona, wire at 6000 V, 2.5 cm away) of the same molecule?
The value was “Less than 1%”.

And the “% FLOURESCENT (percentage of fluorescing cells)” value (corona exposure time 4 minutes, positive corona, wire at 6000 V, 2.5 cm away)?
The value was 15%.

What about the “% FLOURESCENT (percentage of fluorescing cells)” value (corona exposure time 6 minutes, positive corona, wire at 6000 V, 2.5 cm away) of the same molecule?
Its value is 20%.

What about the “% FLOURESCENT (percentage of fluorescing cells)” value (corona exposure time 8 minutes, positive corona, wire at 6000 V, 2.5 cm away) of the same molecule?
The value was 30%.

What about the “% FLOURESCENT (percentage of fluorescing cells)” value (corona exposure time 10 minutes, positive corona, wire at 6000 V, 2.5 cm away) of the same molecule?
The value was 80%.
